Laboratory results: BindingDB's records for doi:10.1016/0006-2952(93)90073-6 (Janssen Research Foundation, 1993)

biological target: T1, 5-hydroxytryptamine receptor 1A (Homo sapiens, UniProt P08908)
T1 sequence (P08908 whole entry): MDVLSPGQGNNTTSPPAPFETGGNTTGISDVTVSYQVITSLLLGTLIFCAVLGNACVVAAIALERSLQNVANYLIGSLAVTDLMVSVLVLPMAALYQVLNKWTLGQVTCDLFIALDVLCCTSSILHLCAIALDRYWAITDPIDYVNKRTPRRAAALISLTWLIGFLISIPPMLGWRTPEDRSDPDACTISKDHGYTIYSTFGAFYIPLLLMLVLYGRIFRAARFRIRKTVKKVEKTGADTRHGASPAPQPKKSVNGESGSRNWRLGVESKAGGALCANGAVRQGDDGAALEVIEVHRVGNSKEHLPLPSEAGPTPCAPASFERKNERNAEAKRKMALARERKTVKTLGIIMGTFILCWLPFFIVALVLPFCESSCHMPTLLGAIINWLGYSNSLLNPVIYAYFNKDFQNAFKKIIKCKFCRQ

Row | Compound | Ki [nM]
1 | COc1ccc(CN(CCN(C)C)c2ccccn2)cc1 | > 10000
2 | Cn1cc(C(F)(F)F)nc1-c1ccc(OCC(O)CNCCOc2ccc(O)c(C(N)=O)c2)cc1 (configuration not stated) | 7360
3 | OC(CNCC(O)C1CCc2cc(F)ccc2O1)C1CCc2cc(F)ccc2O1 (configuration not stated) [CAS_99200-09-6] | 25.8
4 | O=c1ccc2[nH]cc(C3=CCNCC3)c2[nH]1 [CAS_127792-75-0] | 3750
5 | Cc1nc2c(C)cccn2c(=O)c1CCN1CCC(c2noc3cc(F)ccc23)CC1 [CAS_129029-23-8] | 13.9
6 | CN1C[C@@H](NS(=O)(=O)N(C)C)C[C@@H]2c3cccc4c3c(cn4C)C[C@H]21 [MESULERGINE] | 197
7 | CCN1CCCC1CNC(=O)c1cc(S(N)(=O)=O)ccc1OC (configuration not stated) [N-[(1-ethylpyrrolidin-2-yl)methyl]-2-methoxy-5-sulfamoylbenzamide] | > 10000
